Measurements: US7323461B2, “Use of methylene blue and related compounds to prevent or reverse an exaggerated hemodynamic reaction” (Montreal Heart Institute, priority 2002, dated 2008)
Entries after “also recorded” stand apart in the source; their conditions may differ.

Key:
[1] = Hemodynamic effects of methylene blue on hypotensive pigs (LCX artery occluded, sildenafil citrate plus nitroglycerin); type: in vivo, pig; conditions: LCX balloon occlusion, 100 mg sildenafil citrate via esophagus tube, 0.2 mg nitroglycerin i.v. bolus along with MB bolus 3 mg/kg
Protocol: (§1) Pigs weighing between 20 and 25 kg were anesthetized in accordance with the standard procedure of the Canadian Council on Animal Care Regulations. After baseline hemodynamic measurements, the left circumflex (LCX) artery was occluded using a catheter balloon so as to mimic the condition of patients with cardiovascular disease. As soon as the animal was stable, a bolus injection of nitroglycerin (0.2 mg) was given intravenously in order to observe the effect of nitroglycerin alone on the animal. The animal's blood pressure was allowed to return to normal, and the animal was given 100 mg of sildenafil citrate via an esophagus tube. One hour after the administration of sildenafil citrate, a bolus injection of 0.2 mg of nitroglycerin was given to the animal in order to observe the combined effect of […] and nitroglycerin on the animal. When the animal's blood pressure returned to normal, a second 0.2 mg bolus injection of nitroglycerin was given along with a bolus of MB (3 mg/kg). Blood pressure and heart rate were monitored throughout the procedure.

[2] = humans, dosages above 2 mg/kg; cited from earlier work
[3] = Hemodynamic effects of methylene blue on hypotensive dogs (same procedure as for pigs); type: in vivo, dog; conditions: same procedure as pigs: sildenafil citrate, nitroglycerin bolus
Protocol: as §1
The procedure used was the same as that for pigs. (See EXAMPLE 1, above.) The experiments were conducted on dogs to see what effect the combination of a phosphodiesterase inhibitor and an organic nitrate would have on an animal with a greater number of collaterals than the pig. […]

## CN(C)c1ccc2nc3ccc(N(C)C)cc3[s+]c2c1.[Cl-] [MB, 3,7-bis(dimethylamino)phenothiazin-5-ium chloride]
[1]
  changes in time in systolic blood pressure after nitroglycerin injection with MB: Pressure recovery was much more rapid in the presence of MB; also recorded: beneficial effects of MB may be seen; also recorded: effectiveness of MB in increasing the blood pressure
[2]
  respiratory problems at high dosage: can lead to respiratory problems in humans
[3]
  changes in time in systolic blood pressure after nitroglycerin injection with MB: A drop in blood pressure is less pronounced, and there is more rapid recovery time, than without MB; also recorded: MB effectively increased the blood pressure in the animals tested
